Measurements as given in US4550115A, “Certain piperidino-lower-alkylene esters of 3-methylflavone-8-carboxylates possessing smooth muscle relaxant activity” (Recordati S.A., Chemical & Pharmaceutical Company, priority 1981, dated 1985).
Counter-ions that a name gives are not always drawn. Like-named read-outs stand apart in the source and are kept apart here.

What was measured:
[1] = tested on: guinea pig depolarized taenia coli; assay: Calcium blocking activity on guinea pig depolarized taenia coli (Ferrari and Carpenedo); details: Cavia porcellus; cumulative CaCl2, K+-depolarized guinea pig taenia coli; read-out: Calcium blocking activity ED50
Description: The calcium blocking activity was tested on guinea pig depolarized taenia coli, according to the method described by Ferrari and Carpenedo [Arch. Int. Pharmacodyn., 174, 223 (1968)]. The guinea pig taenia coli was allowed to stabilize in Tyrode solution without Ca^++. It was then washed with K2 SO4 Ringer solution and afterwards perfused with KNO3 Ringer. Cumulative concentrations of CaCl2 were added to the organ bath in absence or presence of the test drug.

guinea pig ileum = assay: Antispastic or antispasmodic activity, BaCl2-induced contraction of guinea pig ileum (Magnus method); details: Cavia porcellus, 1 min, read-out: ED50 (antispastic or antispasmodic activity)
Description: The antispastic or antispasmodic activity was evaluated following the Magnus method [Pflugers Arch. […] Two equal contractions were induced by BaCl2 at a concentration ranging between 1 and 4.10^-4 M in guinea pig ileum maintained at 30° C. in Ringer solution and aerated with Carbogen.
The test drug was administered and, one minute later, BaCl2 in the same concentration. The inhibition of the contraction was observed.

[2] = tested on: guinea pig isolated ureter; assay: Antispastic activity, spontaneous mobility of guinea pig isolated ureter (Trendelemburg method); details: Cavia porcellus
Description: The smooth muscle relaxant activity of the novel flavone derivatives was also measured through the spontaneous mobility of guinea pig isolated ureter. […] The ureter was allowed to stabilize in Tyrode solution with the upper part closed and the inner part connected to a pressure transducer. The test drugs were given cumulatively and the spontaneous circular and longitudinal contractions of the ureter were measured.

in vivo = details: mouse
physchem = details: phosphate buffer, pH 7.4
Description: Such stability was measured at 37° C. in simulated gastric fluid (U.S. Pat. No. XX, 1105, 1980) and in phosphate buffer (pH 7.4) by spectrodensitometric determination of 3-methylflavone-8-carboxylic acid resulting from eventual hydrolysis.

[3] = guinea pig ileum, 30° C., BaCl2 1 to 4.10^-4 M, drug one minute before BaCl2, inhibition of contraction
[4] = circular contractions, cumulative dosing, read-out: Antispastic Activity Isolated Ureter ED50, circular contractions
[5] = longitudinal contractions, cumulative dosing, read-out: Antispastic Activity Isolated Ureter ED50, longitudinal contractions

Row | SMILES | IC50 [1] | IC50 (guinea pig ileum; [3]) | IC50 [2, 4] | IC50 [2, 5] | LD50 (in vivo; po) | remaining at 1 h (physchem) | remaining at 3 h (physchem) | LD50 (in vivo; ip) | IC50 (guinea pig ileum) | IC50 ([2]; read-out: Antispastic Activity Isolated Ureter ED50, circular contractions) | IC50 ([2]; read-out: Antispastic Activity Isolated Ureter ED50, longitudinal contractions)
1 | Cc1c(-c2ccccc2)oc2c(C(=O)O[C@@H]3CCCC[C@@H]3N3CCCCC3)cccc2c1=O.Cl (relative stereo) [Active compound 8, cis-2-piperidino-cyclohexyl 3-methyl-flavone-8-carboxylate hydrochloride] | 7.3 µM | 2.7 µM | 5 µM | 2.5 µM | 2160 µmol/kg | 85% | 70% |  |  |  | 
2 | Cc1c(-c2ccccc2)oc2c(C(=O)O[C@@H]3CCCC[C@H]3N3CCCCC3)cccc2c1=O (relative stereo) [Active compound 14] |  | 7.7 µM |  |  |  |  |  |  |  |  | 
3 | Cc1c(-c2ccccc2)oc2c(C(=O)OCCCN3CCCCC3C)cccc2c1=O (centres unmarked) [Active compound 1, 3-(2-methyl-N-piperidino)-propyl 3-methylflavone-8-carboxylate hydrochloride] | 24 µM | 4 µM | 8.5 µM | 6.9 µM | 1860 µmol/kg | 100% | 100% | 560 µmol/kg |  |  | 
4 | Cc1c(-c2ccccc2)oc2c(C(=O)OC(C)CCN3CCCCC3)cccc2c1=O (centres unmarked) [Active compound 2, 1-methyl-3-(N-piperidino)propyl] | 16 µM | 6.2 µM |  |  | 690 µmol/kg | 100% | 100% | 160 µmol/kg |  |  | 
5 | Cc1c(-c2ccccc2)oc2c(C(=O)OC(C)CN3CCCCC3)cccc2c1=O (centres unmarked) [Active compound 3, 1-methyl-piperidino-ethyl] | 19 µM | 9.7 µM |  |  | 850 µmol/kg | 40% | 30% | 500 µmol/kg |  |  | 
6 | Cc1c(-c2ccccc2)oc2c(C(=O)OC(CN3CCCCC3)c3ccccc3)cccc2c1=O (centres unmarked) [Active compound 4, 1-phenyl-2-piperidino-ethyl] |  | 6.7 µM |  |  |  | 68% | 34% |  |  |  | 
7 | Cc1c(-c2ccccc2)oc2c(C(=O)OC(C)(C)CN3CCCCC3)cccc2c1=O [Active compound 5, 1,1-dimethyl-2-(N-piperidino)ethyl-3-methylflavone-8-carboxylate] | 8.6 µM | 2.4 µM | 12 µM | 2.8 µM |  | 96% | 91% |  |  |  | 
8 | Cc1c(-c2ccccc2)oc2c(C(=O)OC(C)(C)CN3CCCCC3C)cccc2c1=O (centres unmarked) [Active compound 6] | 7.5 µM | 3.4 µM | 5.3 µM | 2.5 µM |  | 100% | 100% |  |  |  | 
9 | Cc1c(-c2ccccc2)oc2c(C(=O)OCC(O)CN3CCCCC3)cccc2c1=O (centres unmarked) [Active compound 7, 2-hydroxy-3-(N-piperidino)propyl 3-methylflavone-8-carboxylate] |  |  |  |  | 3100 µmol/kg | 44% | 25% | 580 µmol/kg |  |  | 
10 | Cc1c(-c2ccccc2)oc2c(C(=O)OC3CCCCC3CN3CCCCC3)cccc2c1=O (centres unmarked) [Active compound 9, 2-piperidinomethyl cyclohexyl] | 26 µM | 4 µM |  |  | 1080 µmol/kg | 88% | 87% | 190 µmol/kg |  |  | 
11 | Cc1c(-c2ccccc2)oc2c(C(=O)OC3CCN(C)CC3)cccc2c1=O [Active compound 10, 1-methyl-4-piperidinyl] |  |  |  |  | 850 µmol/kg | 100% | 100% | 150 µmol/kg |  |  | 
12 | Cc1c(-c2ccccc2)oc2c(C(=O)OC3CCCN(C)C3)cccc2c1=O.Cl (centres unmarked) [Active compound 11, N-methyl-3-piperidyl 3-methylflavone-8-carboxylate hydrochloride] |  |  |  |  | 770 µmol/kg | 100% | 100% | 360 µmol/kg |  |  | 
13 | Cc1c(-c2ccccc2)oc2c(C(=O)OC3CC4CCC(C3)N4C)cccc2c1=O (centres unmarked) [Active compound 12, 3-tropinyl-3-methylflavone-8-carboxylate] |  |  |  |  | 950 µmol/kg | 100% | 100% | 420 µmol/kg | 4.3 µM | 20 µM | 9 µM
14 | Cc1c(-c2ccccc2)oc2c(C(=O)OCCN3CCCCC3)cccc2c1=O [FLAVOXATE, 2-(N-piperidino)ethyl 3-methylflavone-8-carboxylate hydrochloride, reference compound] | 25 µM | 5.6 µM |  |  | 1890 µmol/kg | 22% | 10% | 900 µmol/kg |  |  | 
